Test results: patent publication US10039839B2, “Compounds that participate in cooperative binding and uses thereof” (Warp Drive Bio, Inc., priority 2015, dated 2018)
Square brackets hold non-standard residues; d marks the D form. Peptide text beside a SMILES is read from it. MeBmt = C/C=C/C[C@@H](C)[C@@H](O)[C@H](NC)C(=O)O; NMeF = CN[C@@H](Cc1ccccc1)C(=O)O; NMeL = CN[C@@H](CC(C)C)C(=O)O; NMeV = CN[C@H](C(=O)O)C(C)C; Abu = CC[C@H](N)C(=O)O; Sar = CNCC(=O)O

How the values were obtained:
HeLa-FKBP12 cells = test: Biosensor cell permeability assay, FKBP binding compounds; assay type: cell-based; conditions: 72 hrs
Protocol: (§1) This protocol utilizes a modified FKBP or cyclophilin destabilizing mutant to determine the bioactivity of FKBP binding compounds or cyclophilin binding compounds in whole cell assay.
(§2) Plate HeLa-FKBP12 cells (for FKBP binding compounds) or HeLa-Cyclophilin A cells (for cyclophilin binding compounds) and seed overnight at 5 k/well (approximately ˜18 hrs.). Using a multi-channel pipet, take out the old media and add ˜125 ul of new media with compounds. Compounds are diluted using DMEM without Phenol Red, 10% FBS, 1× Sodium Pyruvate, 1× Glutamax. Add 125 ul of media with compound per well. Cells are treated with compounds at concentration: 30, 10, 3.33, 1.11, 0.37, 0.12, 0.04 and 0.013 uM. Time points are taken at 72 hrs and plate read using plate reader with excitation/emission: 575/620.
(§3) Cell binding/permeability is calculated in fold-change (Total RFU of treated samples/total RFU of DMSO treated samples or total RFU above background (Total RFU minus total RFU of DMSO treated samples).

FKBP12 [1] = target: T1, FKBP12 (Homo sapiens, UniProt P62942); test: AlphaLISA: inhibition of binding of biotinylated FK506 to FLAG tagged FKBP12; set-up: made in house
Protocol: This protocol utilizes Perkin Elmers AlphaLISA technology platform to detect FKBP binders by measuring the inhibition of binding of biotinylated FK506 to FLAG tagged FKBP12.
Add 20 uL of 12.5 nM FKBP-FLAG working stock to each well of the 96-well plate. Add 1 uL of test compound (100% DMSO) to each well of the plate using the Janus MTD head and P20 tips (except control wells). Add 1 uL of DMSO to negative control wells and 1 uL of 50 uM FK506 solution to positive control wells. In the dark, add 20 uL of combined Donor/Acceptor beads to each well. Incubate in the dark for 30 minutes at room temperature. In the dark, add 10 uL of 5 nM biotinylated FK506 working stock to each well. Incubate in the dark for 60 minutes at room temperature. Protect plate from light until reading on Biotek Synergy2 Plate Reader; Alphalisa 96-well protocol (680 excitation/615 emission).

FKBP12 [2] = target: T1, FKBP12
Protocol: This protocol utilizes Surface Plasmon Resonance (SPR) as a method to determine kinetics (KD, Ka, Kd) for the binding of compound (analyte) to immobilized FKBP12 (ligand).
Experiments are performed at 25° C. Stock solution of 12×HIS tagged FKBP12 is diluted to 100 nM in assay buffer (1% DMSO final). Approximately 500-600 RU of FKBP12 is immobilized on one of two flow cells of an activated NTA chip. The second flow cell is not activated as a reference for non-specific interaction of the analyte to the sensor chip. Various concentrations of compound (1 nM-1 μM range), serially diluted into the same assay buffer (1% DMSO final), are injected onto the FKBP12 surface and reference surface at a flow rate of 10 μl/min. The surface is regenerated between analyte injections with 350 mM EDTA.
The BiaEvaluation software program is used for data fitting. All data is reference subtracted against both the reference flow cell and a buffer injection. For kinetic analyses, data is locally fit to a 1:1 interaction model.
Experiments are performed at 25° C. Stock solution of 12×HIS tagged FKBP12 is diluted to 100 nM in assay buffer (1% DMSO final). Approximately 500-600 RU of FKBP12 is immobilized on one of two flow cells of an activated NTA chip. The second flow cell is not activated as a reference for non-specific interaction of the analyte to the sensor chip.

CEP250 [3] = target: T2, CEP250 (Homo sapiens, UniProt Q9BV73); test: ITC binding of FKBP12-compound binary complexes to CEP250; conditions: FKBP12 10 μM + ligand 20 μM, 298 K
T2 construct: CEP25011.4 (residues 2134-2231) (in-house); made in house
Protocol: This protocol utilizes Isothermal Titration calorimetry (ITC) to directly measure the heat change associated with binding of FKBP12-F2 and FKBP12-F11 binary complexes to CEP250. Measurement of the heat change allows accurate determination of association constants (Ka), reaction stoichiometry (N), and the change in binding enthalpy (ΔH).
FKBP12 stock solution is diluted to 10 μM in assay buffer (1% DMSO final). Compound is added to FKBP12 to 20 μM (1% DMSO final), and binary complex is filled into the reaction cell of the ITC device after 5-10 min pre-incubation time. […] A control experiment in the absence of compound is also run to determine the heat associated with operational artifacts and the dilution of titrant as it is injected from the syringe into the reaction cell.
Data were fitted with the Origin ITC200 software according to the following procedure: • 1) Read raw data • 2) In “mRawITC”: adjust integration peaks and baseline, integrate all peaks • 3) In “Delta H”—data control: remove bad data (injection #1 and other artifacts), subtract straight line (background subtraction) • 4) In “Delta H”—model fitting: select one set of sites model, perform fitting with Levenberg-Marquardt algorithm until Chi Square is not reduced further, finish with “done” (parameters N, Ka and ΔH are calculated based on fitting)

CEP250 [4] = target: T2, CEP250; test: SPR binding of CEP250 (analyte) to immobilized FKBP12-F2 binary complex
Protocol: Experiments are performed at 25° C.

CEP250 [5] = target: T3, CEP250 (Homo sapiens, UniProt P62942+Q9BV73); test: Crystal structure analysis of FKBP12-compound-CEP250 ternary complexes; conditions: FKBP12-compound-CEP25011.4 crystal structure
T3 construct: CEP25011.4 (residues 2134-2231) (in-house); made in house
Text: As used herein, the term “buried surface area” refers to the surface area of a protein or a complex that is not exposed to solvent. Buried surface area may be determined by methods known in the art including by calculating inaccessibility to solvent. Inaccessibility to solvent may be calculated computationally with a rolling probe of 1.4 A, using a program such as PDBePISA release version 1.48 (http://www.ebi.ac.uk/pdbe/pisa/).
This protocol describes the crystallization and structure determination method for structures of FKBP12-Compound 2-CEP250 and FKBP12-F11-CEP250 ternary complexes.
A 3:1 molar excess of FKBP12-F2 or FKBP12-F11 binary complex is added to CEP25011.4 and incubated at 4° C. overnight to complete ternary complex formation. Pure ternary complex is isolated by gel filtration purification on a Superdex 200 column in 12.5 mM HEPES pH 7.4, 75 mM NaCl. Purified complex (at 10-20 mg/ml) is subjected to crystallization at 22° C. using sitting drop vapor diffusion. FKBP12-F2-CEP250 crystals grow in a well solution containing 0.2 M sodium malonate, 0.1 M HEPES 7.0, 21% PEG 3350. FKBP12-F11-CEP250 crystals grow in a well solution containing 0.1 M Tris pH 8.5, 0.2 M trimethylamine N-oxide, 22-24% PEG2000 MME. For data collection crystals are transferred to a solution containing mother liquor supplemented with 20-25% glycerol, and then frozen in liquid nitrogen. Diffraction datasets are collected at the Advanced Photon Source (APS) and processed with the HKL program. Molecular replacement solutions are obtained using the program PHASER in the CCP4 suite, using the published structure of FKBP12 (PDB-ID 1FKD) as a search model. Subsequent model building and refinement are performed according to standard protocols with the software packages CCP4 and COOT.

HeLa-Cyclophilin A cells = test: Biosensor cell permeability assay, cyclophilin binding compounds; assay type: cell-based; conditions: 72 hrs
Protocol: as §1
as §2, with “well.” for “well. Cells are treated with compounds at concentration: 30, 10, 3.33, 1.11, 0.37, 0.12, 0.04 and 0.013 uM. Time points are taken at 72 hrs and plate read using plate reader with excitation/emission: 575/620.”
as §3

[6] = FKBP12/F2 complex to CEP25011.4 (residues 2134-2231)
[7] = FKBP12/F2 complex to CEP25029.2 (residues 1982-2231)

T3 sequence (Q9BV73 2134-2231): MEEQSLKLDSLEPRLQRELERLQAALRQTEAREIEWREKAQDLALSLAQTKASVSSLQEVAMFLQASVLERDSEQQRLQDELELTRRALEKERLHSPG
T3 sequence (P62942 whole entry, the tested form may be a part): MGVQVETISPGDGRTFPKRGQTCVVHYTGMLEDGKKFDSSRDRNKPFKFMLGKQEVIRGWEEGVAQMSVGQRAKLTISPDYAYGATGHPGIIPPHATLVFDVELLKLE
T1 sequence (P62942 whole entry, species assumed): as the sequence (P62942 whole entry, the tested form may be a part) above

## C/C1=C\CC2OC(O)(C(=O)C(=O)N3CCCCC3C(=O)OC(C(C)CC3CCC(O)C(O)C3)CCC/C=C/C1)C(C)CC2C (stereo not shown) [F17]
HeLa-FKBP12 cells
  IC50: < 1 µM
FKBP12 [1]
  IC50: 0.00026 µM
FKBP12 [2]
  Kd: 0.0002 µM

## COC1C=C(/C=C/C2OC(=O)C3CCCCN3C(=O)C(=O)C3(O)OC(CCC3C)C(C)C3CC4OC(CC(O)C2C)(O3)C(C)CC4C)CCC1O (stereo not shown) [F8]
FKBP12 [1]
  IC50: 0.0106 µM
FKBP12 [2]
  Kd: 0.066 µM

## CC[C@H](Cc1ccccc1)[C@@H]1/C=C/C/C=C/C[C@@H](C)[C@H](O)[C@@H](C)[C@@H]2CC[C@@H](C)C(=O)C(O)(O2)C(=O)N2CCCC[C@H]2C(=O)O1 [F2, (2S)-1-((4R,7S)-7-((2R,3S,4R,6E,9E,11R,12R)-12-benzyl-3,11-dihydroxy-4-methyltetradeca-6,9-dien-2-yl)-2-hydroxy-4-methyl-3-oxooxepane-2-carbonyl)piperidine-2-carboxylic acid C-11 lactone]
CEP250 [3]; CEP25011.4 68 μM
  ΔG: −40.75 kJ*mol−mol−1
  ΔH: −49.37 kJ*mol−mol−1
  −T*ΔS: 8.62 kJ*mol−mol−1
CEP250 [3]; CEP25029.4 118 μM
  ΔG: −38.41 kJ*mol−mol−1
  ΔH: −52.21 kJ*mol−mol−1
  −T*ΔS: 13.80 kJ*mol−mol−1
CEP250 [4]; [6]
  dissociation rate constant (koff): 3.09×10^−3 1/S
  Kd: 0.0054 µM
CEP250 [4]; [7]
  dissociation rate constant (koff): 9.25×10^−5 1/S
  Kd: 0.00029 µM

## CC[C@H](Cc1ccccc1)[C@@H]1CCCCCC[C@@H](C)[C@H](O)[C@@H](C)[C@@H]2CC[C@@H](C)C(=O)C(O)(O2)C(=O)N2CCCCC2C(=O)O1 (stereo partly drawn) [F11, (2S)-1-((4R,7S)-7-((2R,3S,4R,11S,12R)-12-benzyl-3,11-dihydroxy-4-methyltetradecan-2-yl)-2-hydroxy-4-methyl-3-oxooxepane-2-carbonyl)piperidine-2-carboxylic acid C-11 lactone]
CEP250 [3]; CEP25011.4 68 μM
  ΔG: −40.36 kJ*mol−mol−1
  ΔH: −47.78 kJ*mol−mol−1
  −T*ΔS: 7.41 kJ*mol−mol−1
CEP250 [3]; CEP25029.4 118 μM
  ΔG: −36.74 kJ*mol−mol−1
  ΔH: −58.48 kJ*mol−mol−1
  −T*ΔS: 21.73 kJ*mol−mol−1
FKBP12 [2]; read-out: Ka
  kon: 567000 M⁻¹ s⁻¹
CEP250 [5]
  buried surface area of CEP250 contributed by FKBP12: 590 Å^2
  total buried surface area of CEP250: 831 Å^2
  total buried surface area of the ternary complex: 1648 Å^2

## CC(=C\C1C=CC(O)C(O)C1)/C=C(\C)C1CC(O)CC1C(C)(O)/C=C/C(O)C/C=C/CC(C)C1OC(O)(CC(=O)N2CCCCC2C(=O)O)C(C)CC1C (stereo not shown) [F23]
HeLa-FKBP12 cells
  IC50: > 1 µM
FKBP12 [1]
  IC50: 4.69 µM

## C/C1=C\C2=CC(O)C(C=C2)OC(=O)C2CCCCN2C(=O)C(=O)C2(O)OC(CCC2C)C(C)C(O)/C=C/C(C)CCC(O)/C(C)=C/C(C)C1 (stereo not shown) [F12]
HeLa-FKBP12 cells
  IC50: > 1 µM
FKBP12 [1]
  IC50: 0.0363 µM
FKBP12 [2]
  Kd: 0.0212 µM

## COC1CC(/C=C(C)/C=C(\C)C2CC(O)C/C=C(C)/C=C/C(O)C/C=C/CC(C)C3OC(O)(CC(=O)N4CCCCC4C(=O)O2)C(C)CC3C)C=CC1O (stereo not shown) [F13]
HeLa-FKBP12 cells
  IC50: > 1 µM
FKBP12 [1]
  IC50: 0.0336 µM
FKBP12 [2]
  Kd: 0.106 µM

## CCC(/C=C(\C)C(O)CCC(C)/C=C/C(O)C(C)C1CCC(C)C(O)(C(=O)C(=O)N2CCCCC2C(=O)O)O1)C/C(C)=C/c1ccc(O)c(O)c1 (stereo not shown) [F18]
HeLa-FKBP12 cells
  IC50: < 1 µM
FKBP12 [1]
  IC50: 0.229 µM

## COC1C(O)CCC(CC(C)C2CCC/C=C/C/C(C)=C/CC3OC(O)(C(=O)C(=O)N4CCCCC4C(=O)O2)C(C)CC3C)C1O (stereo not shown) [F9]
HeLa-FKBP12 cells
  IC50: < 1 µM
FKBP12 [1]
  IC50: 0.0003 µM
FKBP12 [2]
  Kd: 0.00023 µM

## CC1=C\CC(O)CC(/C(C)=C/C(C)=C/C2C=CC(O)C(O)C2)OC(=O)C2CCCCN2C(=O)CC2(O)OC(C(C)C/C=C/CC(O)\C=C\1)C(C)CC2C (stereo not shown) [F6]
HeLa-FKBP12 cells
  IC50: < 1 µM
FKBP12 [1]
  IC50: 0.06 µM
FKBP12 [2]
  Kd: 0.141 µM

## CCC1/C=C(\C)C(O)CCC(C)/C=C/C(O)C(C)C2CCC(C)C(O)(O2)C(=O)C(=O)N2CCCCC2C(=O)OC2C=CC(=CC2O)/C=C(\C)C1 (stereo not shown) [F10]
HeLa-FKBP12 cells
  IC50: > 1 µM
FKBP12 [1]
  IC50: 0.0211 µM
FKBP12 [2]
  Kd: 0.0172 µM

## CCC(/C=C(\C)C(O)CCC(C)/C=C/C(O)C(C)C1CCC(C)C(O)(C(=O)C(=O)N2CCCCC2C(=O)O)O1)C/C(C)=C/C1=CC(O)C(O)C=C1 (stereo not shown) [F14]
HeLa-FKBP12 cells
  IC50: > 1 µM
FKBP12 [1]
  IC50: 1.8 µM

## C/C=C/C[C@@H](C)[C@@H](O)[C@H]1C(=O)N[C@@H](CC)C(=O)N(C)CC(=O)N(C)[C@@H](Cc2ccccc2)C(=O)N[C@@H](C(C)C)C(=O)N(C)[C@@H](CC(C)C)C(=O)N[C@@H](C)C(=O)N[C@H](C)C(=O)N(C)[C@@H](CC(C)C)C(=O)N(C)[C@@H](CC(C)C)C(=O)N(C)[C@@H](C(C)C)C(=O)N1C [C36] (cyclo([MeBmt][Abu][Sar][NMeF]V[NMeL]A[dA][NMeL][NMeL][NMeV]))
HeLa-Cyclophilin A cells
  IC50: < 3 µM

## COC1CC(/C=C(C)/C=C(\C)C2CC(O)C/C=C(C)/C=C/C(=O)C/C=C/CC(C)C3OC(O)(CC(=O)N4CCCCC4C(=O)O2)C(C)CC3C)C=CC1O (stereo not shown) [F16]
HeLa-FKBP12 cells
  IC50: > 1 µM
FKBP12 [1]
  IC50: 0.0675 µM
FKBP12 [2]
  Kd: 0.29 µM

## COC1C=C(/C=C/C2OC(=O)C3CCCCN3C(=O)C3(O)OC(CCC(C)C3=O)C(C)C3CC4OC(CC(O)C2C)(O3)C(C)CC4C)CCC1O (stereo not shown) [F7]
FKBP12 [1]
  IC50: 0.026 µM
FKBP12 [2]
  Kd: 0.12 µM
